This note sets out measurements from PubChem BioAssay AID248 (DTP/NCI, 2004).

In this assay the test system is L1210 leukemia ip in BDF1 mice, survival T/C. The assay can be described thus: NCI In Vivo Anticancer Drug Screen. Data for tumor model L1210 Leukemia (intraperitoneal) in B6D2F1 (BDF1) mice. The following applies: higher = longer survival. In short, it runs like this:
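Tumor cells were implanted, animals were treated, and survival was followed. The result divides the treated measurement by the vehicle-control measurement.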

The mark [1] stands for this setting: endpoint: mean survival time, dose: 25.0 mg/kg/injection, schedule: Q01DX009 (ip), vehicle: saline.
[2] abbreviates: endpoint: mean survival time, dose: 400.0 mg/kg/injection, schedule: Q01DX009 (ip), vehicle: saline with Tween-80.
The mark [3] stands for this setting: endpoint: mean survival time, dose: 100.0 mg/kg/injection, schedule: Q01DX009 (ip), vehicle: other.
Setting [4] is: endpoint: mean survival time, dose: 200.0 mg/kg/injection, schedule: Q01DX009 (ip), vehicle: other.
Setting [5] is: endpoint: mean survival time, dose: 400.0 mg/kg/injection, schedule: Q01DX009 (ip), vehicle: other.

SMILES strings stand for the structures. Values joined by “and” are separate entries in the source; they are usually repeats but may differ in a detail not shown here. Equal entries are not always repeated. Toxic doses and inconclusive results are not listed.

Turning to `CN1Cc2cc3cc(c2O)C[N+](C)(C)Cc2c(Cl)c(c(Cl)c(c2Cl)C[N+](C)(C)C3)C1`, the T/C was 98 % of control (endpoint: mean survival time, dose: 12.5 mg/kg/injection, schedule: Q01DX009 (ip), vehicle: saline); 97 % of control (endpoint: mean survival time, dose: 12.5 mg/kg/injection, schedule: Q04DX003 (ip), vehicle: saline); 98 % of control under setting [1]; 97 % of control (endpoint: mean survival time, dose: 25.0 mg/kg/injection, schedule: Q04DX003 (ip), vehicle: saline); 92 % of control (endpoint: mean survival time, dose: 50.0 mg/kg/injection, schedule: Q04DX003 (ip), vehicle: saline).

As to `Cc1ccc(Cl)cc1NC(=O)Nc1cccc(C(F)(F)F)c1`, the T/C runs as follows: (endpoint: mean survival time, dose: 50.0 mg/kg/injection, schedule: Q01DX009 (ip), vehicle: saline with Tween-80) 97 % of control and 90 % of control; (endpoint: mean survival time, dose: 100.0 mg/kg/injection, schedule: Q04DX002 (ip), vehicle: saline with Tween-80) 102 % of control and 88 % of control; (endpoint: mean survival time, dose: 100.0 mg/kg/injection, schedule: Q04DX003 (ip), vehicle: saline with Tween-80) 101 % of control; (endpoint: mean survival time, dose: 200.0 mg/kg/injection, schedule: Q04DX002 (ip), vehicle: saline with Tween-80) 98 % of control and 90 % of control; (endpoint: mean survival time, dose: 200.0 mg/kg/injection, schedule: Q04DX003 (ip), vehicle: saline with Tween-80) 96 % of control; under setting [2], 105 % of control and 90 % of control. The T/C is 104 % of control and 91 % of control (endpoint: mean survival time, dose: 400.0 mg/kg/injection, schedule: Q04DX002 (ip), vehicle: saline with Tween-80); 91 % of control (endpoint: mean survival time, dose: 400.0 mg/kg/injection, schedule: Q04DX003 (ip), vehicle: saline with Tween-80).

Regarding `CCOC(=N)CC(=N)OCC`, the T/C (endpoint: mean survival time, dose: 100.0 mg/kg/injection, schedule: Q01DX009 (ip), vehicle: water) is 96 % of control; the T/C (endpoint: mean survival time, dose: 100.0 mg/kg/injection, schedule: Q04DX003 (ip), vehicle: water) is 97 % of control; the T/C (endpoint: mean survival time, dose: 200.0 mg/kg/injection, schedule: Q01DX009 (ip), vehicle: water) was 101 % of control; the T/C (endpoint: mean survival time, dose: 200.0 mg/kg/injection, schedule: Q04DX003 (ip), vehicle: water) was 93 % of control; the T/C (endpoint: mean survival time, dose: 400.0 mg/kg/injection, schedule: Q01DX009 (ip), vehicle: water) is 97 % of control; the T/C (endpoint: mean survival time, dose: 400.0 mg/kg/injection, schedule: Q04DX003 (ip), vehicle: water) is 97 % of control.

On to `COc1cc(O)c(C(=O)O)c(OC)c1`, for which the T/C was 103 % of control under setting [3]; 104 % of control (endpoint: mean survival time, dose: 100.0 mg/kg/injection, schedule: Q04DX003 (ip), vehicle: saline); 103 % of control under setting [4]; 102 % of control (endpoint: mean survival time, dose: 200.0 mg/kg/injection, schedule: Q04DX003 (ip), vehicle: saline); 101 % of control under setting [5]; 98 % of control (endpoint: mean survival time, dose: 400.0 mg/kg/injection, schedule: Q04DX003 (ip), vehicle: saline).

In the case of `Cc1[nH]c2ccccc2c1C1Cc2ccccc2N1` (centres undefined), the T/C is, setting by setting: (endpoint: mean survival time, dose: 100.0 mg/kg/injection, schedule: Q01DX001 (ip), vehicle: other) 97 % of control and 103 % of control; under setting [3], 101 % of control; (endpoint: mean survival time, dose: 200.0 mg/kg/injection, schedule: Q01DX001 (ip), vehicle: other) 100 % of control and 90 % of control; under setting [4], 101 % of control; (endpoint: mean survival time, dose: 400.0 mg/kg/injection, schedule: Q01DX001 (ip), vehicle: other) 94 % of control; under setting [5], 107 % of control.

As for `O=[N+]([O-])c1ccc(N2CCCCC2)c([N+](=O)[O-])c1`, the T/C was 96 % of control under setting [1]; 102 % of control (endpoint: mean survival time, dose: 50.0 mg/kg/injection, schedule: Q01DX009 (ip), vehicle: saline); 96 % of control (endpoint: mean survival time, dose: 100.0 mg/kg/injection, schedule: Q01DX009 (ip), vehicle: saline); 98 % of control (endpoint: mean survival time, dose: 200.0 mg/kg/injection, schedule: Q01DX009 (ip), vehicle: saline); 96 % of control (endpoint: mean survival time, dose: 400.0 mg/kg/injection, schedule: Q01DX009 (ip), vehicle: saline).

On to `Nc1nc2[nH]c(=O)cnc2c(=O)[nH]1`, for which the T/C is 102 % of control (endpoint: mean survival time, dose: 50.0 mg/kg/injection, schedule: Q01DX009 (ip), vehicle: Klucel (hydroxypropylcellulose) (HPC)); 107 % of control (endpoint: mean survival time, dose: 50.0 mg/kg/injection, schedule: Q04DX003 (ip), vehicle: Klucel (hydroxypropylcellulose) (HPC)); 111 % of control (endpoint: mean survival time, dose: 100.0 mg/kg/injection, schedule: Q01DX009 (ip), vehicle: Klucel (hydroxypropylcellulose) (HPC)); 110 % of control (endpoint: mean survival time, dose: 100.0 mg/kg/injection, schedule: Q04DX003 (ip), vehicle: Klucel (hydroxypropylcellulose) (HPC)); 107 % of control (endpoint: mean survival time, dose: 200.0 mg/kg/injection, schedule: Q01DX009 (ip), vehicle: Klucel (hydroxypropylcellulose) (HPC)); 102 % of control (endpoint: mean survival time, dose: 200.0 mg/kg/injection, schedule: Q04DX003 (ip), vehicle: Klucel (hydroxypropylcellulose) (HPC)). The T/C was 95 % of control (endpoint: mean survival time, dose: 400.0 mg/kg/injection, schedule: Q01DX009 (ip), vehicle: Klucel (hydroxypropylcellulose) (HPC)) and 104 % of control (endpoint: mean survival time, dose: 400.0 mg/kg/injection, schedule: Q04DX003 (ip), vehicle: Klucel (hydroxypropylcellulose) (HPC)).

For the molecule `COCn1cnc([N+](=O)[O-])c1Br`, the T/C runs as follows: (endpoint: mean survival time, dose: 100.0 mg/kg/injection, schedule: Q01DX001 (ip), vehicle: acetone) 101 % of control; (endpoint: mean survival time, dose: 100.0 mg/kg/injection, schedule: Q01DX009 (ip), vehicle: saline with Tween-80) 96 % of control; (endpoint: mean survival time, dose: 200.0 mg/kg/injection, schedule: Q01DX001 (ip), vehicle: acetone) 90 % of control; (endpoint: mean survival time, dose: 200.0 mg/kg/injection, schedule: Q01DX009 (ip), vehicle: saline with Tween-80) 93 % of control; (endpoint: mean survival time, dose: 400.0 mg/kg/injection, schedule: Q01DX001 (ip), vehicle: acetone) 100 % of control; under setting [2], 86 % of control.

For the molecule `COc1ccc(C(=O)C(C)C(C)=N)c(OCc2ccccc2)c1OC` (centres undefined), the T/C reads like this: (endpoint: mean survival time, dose: 100.0 mg/kg/injection, schedule: Q01DX001 (ip), vehicle: carboxymethylcellulose (CMC)) 95 % of control; (endpoint: mean survival time, dose: 200.0 mg/kg/injection, schedule: Q01DX001 (ip), vehicle: carboxymethylcellulose (CMC)) 92 % of control; (endpoint: mean survival time, dose: 400.0 mg/kg/injection, schedule: Q01DX001 (ip), vehicle: carboxymethylcellulose (CMC)) 92 % of control.

Turning to `CC(=O)OCC1OC(SC2CCCCC2Br)C(OC(C)=O)C(OC(C)=O)C1OC(C)=O` (centres undefined), the T/C is 101 % of control (endpoint: mean survival time, dose: 100.0 mg/kg/injection, schedule: Q01DX001 (ip), vehicle: saline); 104 % of control (endpoint: mean survival time, dose: 200.0 mg/kg/injection, schedule: Q01DX001 (ip), vehicle: saline); 106 % of control (endpoint: mean survival time, dose: 400.0 mg/kg/injection, schedule: Q01DX001 (ip), vehicle: saline).

With `COc1cccc2c1C(=O)c1c(O)c3c(c(O)c1C2=O)CC(O)(C(=O)CO)CC3OC1CC(N)C(O)C(C)O1` (centres undefined), the T/C is 151 % of control (endpoint: mean survival time, dose: 0.5 mg/kg/injection, schedule: Q01DX008 (ip), vehicle: saline); 158 % of control (endpoint: mean survival time, dose: 1.0 mg/kg/injection, schedule: Q01DX008 (ip), vehicle: saline); 209 % of control (endpoint: mean survival time, dose: 2.0 mg/kg/injection, schedule: Q01DX008 (ip), vehicle: saline); 98 % of control (endpoint: mean survival time, dose: 4.0 mg/kg/injection, schedule: Q01DX008 (ip), vehicle: saline); 121 % of control (endpoint: median survival time, dose: 4.0 mg/kg/injection, schedule: Q01DX005 (ip), vehicle: water); 115 % of control (endpoint: median survival time, dose: 6.0 mg/kg/injection, schedule: Q01DX005 (ip), vehicle: other). Further, the T/C is 123 % of control (endpoint: median survival time, dose: 11.0 mg/kg/injection, schedule: Q01DX005 (ip), vehicle: other); 177 % of control (endpoint: median survival time, dose: 11.0 mg/kg/injection, schedule: Q01DX005 (ip), vehicle: water); 115 % of control (endpoint: median survival time, dose: 11.0 mg/kg/injection, schedule: Q04DX003 (ip), vehicle: water); 123 % of control (endpoint: median survival time, dose: 16.0 mg/kg/injection, schedule: Q01DX005 (ip), vehicle: other); 177 % of control (endpoint: median survival time, dose: 19.0 mg/kg/injection, schedule: Q01DX005 (ip), vehicle: water); 155 % of control (endpoint: median survival time, dose: 31.0 mg/kg/injection, schedule: Q01DX005 (ip), vehicle: water). The T/C is, setting by setting: (endpoint: median survival time, dose: 31.0 mg/kg/injection, schedule: Q04DX003 (ip), vehicle: water) 121 % of control; (endpoint: median survival time, dose: 51.6 mg/kg/injection, schedule: Q01DX005 (ip), vehicle: water) 152 % of control; (endpoint: median survival time, dose: 52.0 mg/kg/injection, schedule: Q04DX003 (ip), vehicle: water) 194 % of control; (endpoint: median survival time, dose: 87.0 mg/kg/injection, schedule: Q04DX003 (ip), vehicle: water) 157 % of control and 172 % of control; (endpoint: median survival time, dose: 145.0 mg/kg/injection, schedule: Q04DX003 (ip), vehicle: water) 110 % of control; (endpoint: median survival time, dose: 242.0 mg/kg/injection, schedule: Q04DX003 (ip), vehicle: water) 89 % of control.
